From the OPERA property sets (Mansouri et al. 2018)
Peptide text beside a SMILES is read from it.

Structure (SMILES)	logP
COP(=S)(OC)Oc1ccc([N+](=O)[O-])cc1	2.86
CC12CCC(=O)C=C1CCC1C2C(O)CC2(C)C1CCC2(O)C(=O)COC(=O)CCCCCC(=O)O (centres undefined)	3.26
Cc1cccc(N2C(=O)CCC2=O)c1	0.57
Oc1cc(O)cc(O)c1	0.16
CCCCc1cccc(NC(=O)N(C)C)c1	3.23
O=C(O)Cc1ccccc1Nc1c(Cl)cc(O)cc1Cl	3.7
NC(=O)N(CCCl)N=O	0.57
CCCc1cc(C(=O)NN)ccn1	0.63
CCCN(CCC)C1CCOc2c(O)cccc21 (centres undefined)	3.3
CC(=O)OCC1CCC(n2cnc3c(=O)[nH]cnc32)O1 (centres undefined)	-0.9
O=C(CC(=O)C(F)(F)F)c1cccs1	1.46
CC(=O)OCCc1ccccc1	2.3
CS(=O)(=O)c1cccc(-c2nc(N)nc(N)n2)c1	0.29
O=C(O)COc1ccc(Cl)c(Cl)c1	2.81
Nc1cccc(CO)c1	-0.05
CCc1ccccc1N	1.74
N#Cc1cc(-c2ccccc2)nnc1NCCN1CCOCC1	1.89
CC(C)(C)N(CC(O)COc1ccccc1)CC(O)COc1ccccc1 (centres undefined)	3.99
Fc1ccccc1F	2.37
Cn1c([N+](=O)[O-])cnc1-c1nc2ccccc2n1CCCN1CCOCC1	1.8
CCC1(c2ccccc2)C(=O)NC(=O)N(C(C)C)C1=O (centres undefined)	2.58
O=C1CN=C(c2ccccc2Cl)c2cc([N+](=O)[O-])ccc2N1	2.41
c1ccc2[nH]cnc2c1	1.32

Structure (SMILES)	logP
CS(=O)(=O)OCCCCOS(C)(=O)=O	-0.52
Oc1ccc(Cn2cc[nH]c2=S)cc1F	1.12
COc1ccc(N(C)C)cc1	1.42
O=C(Nc1cccc2cccnc12)C(F)(F)F	3.24
CCCCOC(C)=O	1.78
FC(F)(Cl)Cl	2.16
O=C(O)CCc1c[nH]c2ccccc12	1.75
CCCCCCOc1ccc(NC(=O)OCCN2CCCCC2)cc1	5.41
CCCNC(=O)NO	-0.22
CC(C)(C)C(=O)C(Oc1ccc(Cl)cc1)n1cncn1 (centres undefined)	2.77
ClC(Cl)(Cl)C(Cl)(Cl)Cl	4.14
[O-][n+]1cccc2ccccc21	0.36
O=C(Cc1ccccc1)c1ccccc1	3.18
NNC(=O)c1ccccc1Cl	0.14
Fc1cccc(F)n1	1.17
O=C(O)c1cccc(Cl)c1	2.68
O=C(OC(=O)c1ccccc1)c1ccccc1	2.26
Clc1ccc2ccccc2n1	2.71
CC12CCC(=O)C=C1CCC1C2C(O)CC2(C)C1CCC2(O)C(=O)COC1OC(CO)C(O)C(O)C1O (centres undefined)	0.15
CN(C)C=C[N+](=O)[O-]	-0.8
NC(=O)c1ccncc1	-0.28
CC(C)(C)C	3.11
CCCC(N)Cc1ccccc1 (centres undefined)	2.79

Structure (SMILES)	logP
CCCCC(CC)COP(=O)(Oc1ccccc1)Oc1ccccc1 (centres undefined)	5.73
CC(=O)OC(C)(C)C	1.76
COc1ccc2c(c1)OC(C)(C)C=C2	3.35
C=CCC1(C(C)CCC)C(=O)NC(=S)NC1=O (centres undefined)	3.23
CCOc1ccc2cc[nH]c2c1	2.53
CN(C)CC/C=C1\c2ccccc2Sc2ccc(Cl)cc21	5.18
N#Cc1c2ccccc2cc2ccccc12	4.26
Cc1ccc(Cc2c[nH]c(NCCSCc3ccc(CN(C)C)o3)nc2=O)cn1	2.06
NCCC(N)C(=O)O (centres undefined)	-4.64
CC(=O)c1ccccc1NCC#N	1.58
O=[N+]([O-])c1ncn(CC(F)CO)n1 (centres undefined)	-0.8
CN(C)CCOC(=O)c1ccc(C#N)cc1	1.43
CCCCNC(=O)NO	0.32
NC(=O)c1ccc(Br)cc1	1.76
O=C1CC(=O)c2ccccc21	0.61
Cn1c(=O)cnc2ccccc21	0.79
O=C(O)COc1ccc(Cl)c(Br)c1	2.75
CCCCOCN(C(=O)CCl)c1c(CC)cccc1CC	4.5
CCOc1cccc(O)c1	1.98
Nc1ccc(S(=O)(=O)Nc2ccc(Cl)cc2)cc1	2.71
COC(=O)C12OCC34C(CC5C(C)=C(O)C(=O)CC5(C)C3C(O)C1O)OC(=O)C(OC(=O)C=C(C)C(C)C)C24 (centres undefined)	1.66
c1ccc(N2CCOCC2)cc1	1.36
CCNC(=O)NO	-0.76

Structure (SMILES)	logP
NNC(=O)c1ccc(I)cc1	1.55
NS(=O)(=O)c1ccc2c(c1)S(=O)(=O)NCN2	-0.52
O=S1(=O)OC(c2ccc(O)cc2)(c2ccc(O)cc2)c2ccccc21	3.02
c1ccc2c(c1)cnc1ccccc12	3.48
Cc1n[nH]c(C(=O)N(C)Cc2ccccc2)c1[N+](=O)[O-]	1.65
O=NN(CCCl)C(=O)NC1CCCCCCCCCCC1	5.64
O=C(C=Cc1ccco1)c1ccco1	2.34
S=C=Nc1cccc2ccccc12	4.34
CCCCOc1ccc(C(=O)OCCN(C)C)cc1	3.91
COC(=O)C(C)N(C(=O)c1ccco1)c1c(C)cccc1C (centres undefined)	2.61
CCN(CC)CCNC(=O)c1cc([N+](=O)[O-])c(N)cc1OC	2.11
CCNC(=O)c1cccnc1	0.31
CC(=O)Nc1c(I)c(C(=O)N[C@H]2C(O)O[C@H](CO)[C@@H](O)[C@@H]2O)c(I)c(N(C)C(C)=O)c1I (some centres undefined)	-1.89
CC(C)OC(=O)c1cc(O)c(O)c(O)c1	1.54
CCN(CC)C(=O)C(C)Oc1cccc2ccccc12 (centres undefined)	3.36
N#Cc1ccco1	0.96
NC(=O)c1ccccc1C(N)=O	-1.73
O=C(O)CNC(=O)c1ccccc1	0.31
Cn1cccc1C=NNC(=O)Nc1ccccc1	2.71
Nc1ccc2[nH]ccc2c1	0.7
CC(=O)Sc1ccccc1	2.23
O=[N+]([O-])c1cc(Cl)c(Cl)cc1Cl	3.48
Cn1c(CO)cnc1[N+](=O)[O-]	-0.35

Structure (SMILES)	logP
CCC(=O)NN	-1
OCc1ccncc1	0.06
Cn1cccc1C=NNC(=S)Nc1ccccc1	3.64
COc1ccc(C(C)c2ccc(OC)cc2)cc1	4.52
Cc1cc(O)c(C(C)C)cc1Cl	3.92
COc1cc(CC(C)N)c(OC)cc1C (centres undefined)	2.24
CC#N	-0.34
CCC(NC(C)=O)C(=O)OC (centres undefined)	-0.17
CC(=O)OC1C(=O)C2(C)C(O)CC3OCC3(OC(C)=O)C2C(OC(=O)c2ccccc2)C(C)(O)C2(C)CC(OC(=O)C(C)O)C(C)=C12 (centres undefined)	1.52
C=C[C@@]12COC(=O)C(=C)[C@@H]1[C@H]1OC(=O)C(=C)[C@@H]1[C@@H](O)C2	0.31
O=[N+]([O-])Cc1ccccc1	1.75
N#CCc1ccco1	0.85
c1ccc(-c2csnn2)cc1	2.42
CC(C)CCOc1cc(N)ccc1C(=O)O	2.3
CCC=O	0.59
CC(=O)CC(=O)C(C)(C)C	1.67
O=C(CCBr)N1CCN(C(=O)CCBr)CC1	0.42
O=S(=O)(CCl)c1ccccc1	1.24
CCCCNCCC	2.12
CC(C)(Oc1ccccc1)C(=O)N[C@@H]1C(=O)N2[C@@H]1SC(C)(C)[C@@H]2C(=O)O	2.76
CON(C)C(=O)Nc1ccc(OCCCCOc2ccccc2)cc1	3.57
CCC(Cl)(CC)C(=O)NC(N)=O	1.4
Oc1c(Cl)cc(Cl)c(Cl)c1Cc1c(O)c(Cl)cc(Cl)c1Cl	7.54

Structure (SMILES)	logP
CO[C@H]1[C@@H](O)C[C@H](O[C@H]2[C@@H](O)C[C@H](O[C@H]3[C@@H](O)C[C@H](O[C@H]4CC[C@@]5(C)[C@H](CC[C@@H]6[C@@H]5C[C@@H](O)[C@]5(C)[C@@H](C7=CC(=O)OC7)CC[C@]65O)C4)O[C@@H]3C)O[C@@H]2C)O[C@@H]1C	1.8
Cc1cccc(Cl)c1NC1=NCCN1	1.71
[N-]=[N+]=CC(=O)NCC(N)=O	-1.26
O=C(O)Cc1c[nH]c2ccccc12	1.41
O=S(=O)(N=[N+]([O-])c1ccccc1)c1ccccc1	2.87
Nc1ccc(Cc2ccc(N)cc2)cc1	1.59
OB(O)c1ccccc1	1.58
CC(=O)NN	-1.58
COC(=O)C(=Cc1ccccc1)C(=O)OC	2.24
O=C(O)c1cccc(C(F)(F)F)c1	2.95
CN(C)Cc1cccnc1	0.49
CNC(=O)Oc1ccc(OC)cc1	1.2
CCCc1ccc(S(N)(=O)=O)cc1	1.64
CCCCC(=O)OCC(=O)C1(O)C(C)CC2C3CCC4=CC(=O)C=CC4(C)C3(F)C(O)CC21C (centres undefined)	3.87
CC(=O)Nc1ccc2cccnc2c1	1.55
O=[N+]([O-])c1ncn(CC(O)CF)n1 (centres undefined)	-0.59
Nc1cc(N2CCCCC2)nc(N)[n+]1[O-]	1.24
ON=Cc1ccc(F)cc1	2.03
Nc1nc(=O)c2ccccc2o1	0.27
COC(=O)C1C(C=C(Cl)Cl)C1(C)C (centres undefined)	3.63
C#CCO	-0.38
CCSCCSP(=O)(OC)OC	1.02
c1ccc(Cc2cc(-c3ccccc3)nnc2NCCN2CCOCC2)cc1	3.65

Structure (SMILES)	logP
OCc1ccccn1	0.06
O=C1C=CC(=NBr)C=C1	1.12
CCOC(=O)C(Cc1ccccc1)C(=O)OCC	2.76
CCOP(=S)(OCC)O/N=C(\C#N)c1ccccc1	4.39
CCCn1cnc([N+](=O)[O-])n1	0.3
CCC(C)OC(=O)C(C(=O)OC(C)CC)=C1SCCS1 (centres undefined)	4.53
NNC(=O)c1cccc(Br)c1	1.26
CCC1(CCC(C)C)C(=O)NC(=O)NC1=O	2.07
Cc1nccnc1CC(C)C	1.96
C[C@]12CC[C@H]3[C@@H](CCC4=CC(=O)CC[C@@H]43)[C@@H]1CC[C@@H]2O	2.62
CCC(C)C(NC(=O)C(CC(N)=O)NC(C)=O)C(N)=O (stereo not drawn) (Ac-Asn-Ile-NH2; configuration not given here)	-1.43
CCN(CC)CCCN(c1ccccc1)C1Cc2ccccc2C1	4.86
CSc1ccc2ccccc2n1	3.04
NNC(=O)c1ccnc(F)c1	-0.11
Nc1ccc(C[C@H](N)C(=O)O)cc1	-2.2
CC(C)C(=O)c1ccccc1	2.73
CCCCN(CCCC)N=O	2.63
CCCCCCCBr	4.36
c1ccc2c(c1)oc1ccccc12	4.12
Cc1cc(NN)ncn1	0.62
CC[C@H](C)[C@H](N)C(=O)O	-1.72
